Each structure is given as a SMILES string. Structures can show the parent of a compound that is named as a salt. Where two headings read alike, the source gives them in different places. Some results are limits rather than exact numbers.

Common to all, as to assay: cells
For experiment [1], the system named is MCF10A. Conditions: Homo sapiens, MCF-10A, 72 h.
For experiment [2], the system named is Du145. Conditions: Homo sapiens, DU-145, 72 h.
In experiment [3] the test system is A2780. Conditions: Homo sapiens, A2780, 72 h.
Experiment [4] has as its system SMA. Conditions: SMA, 72 h.
For experiment [5], the system named is U87. Conditions: Homo sapiens, U-87 MG, 72 h.
Experiment [6] relates to A431. Conditions: Homo sapiens, A-431, 72 h.
For experiment [7], the system named is BE2-C. Conditions: Homo sapiens, BE(2)-C, 72 h.
Experiment [8] relates to H460. Conditions: Homo sapiens, NCI-H460, 72 h.
Experiment [9] relates to MCF-7. Conditions: Homo sapiens, MCF7, 72 h.
The test system of experiment [10] is HT29. Conditions: Homo sapiens, HT-29, 72 h.
In experiment [11] the test system is SJ-G2. Conditions: SJ-G2, 72 h.
Experiment [12] concerns MIA. Conditions: 72 h.

For `Nc1ccc(OC/C=C\COc2ccc(N)cc2)cc1` [8e, (Z)-4,4′-(But-2-ene-1,4-diylbis(oxy))dianiline hydrochloride], the GI50 in experiment [1] (read-out: 8e), in experiment [2] (read-out: 8e), in experiment [3] (read-out: 8e), in experiment [4] (read-out: 8e), in experiment [5] (read-out: 8e) and in experiment [6] (read-out: 8e) was more than 50 µM throughout. In addition, the GI50 in [7] (read-out: 8e), in experiment [8] (read-out: 8e), in experiment [9] (read-out: 8e), in experiment [10] (read-out: 8e), in experiment [11] (read-out: 8e) and in experiment [12] (read-out: 8e) was more than 50 µM in each case.
In the case of `CCNC(=O)Nc1ccc(OCCCOc2ccc(NC(=O)NCC)cc2)cc1` [10a, N,N′-[1,3-Propanediylbis(oxy-4,1-phenylene)]bis(N-ethyl)urea], the GI50 in [1] (read-out: 10a), in experiment [2] (read-out: 10a), in experiment [3] (read-out: 10a), in experiment [4] (read-out: 10a), in [5] (read-out: 10a) and in experiment [6] (read-out: 10a) was more than 50 µM in each case. The GI50 in experiment [7] (read-out: 10a), in experiment [8] (read-out: 10a), in [9] (read-out: 10a), in [10] (read-out: 10a), in experiment [11] (read-out: 10a) and in experiment [12] (read-out: 10a) was more than 50 µM each time.
`CCNC(=O)Nc1ccc(OCCCCCOc2ccc(NC(=O)NCC)cc2)cc1` [10b, N,N′-[1,5-Pentanediylbis(oxy-4,1-phenylene)]bis(N-ethyl)urea]: the GI50 in experiment [1] (read-out: 10b), in [2] (read-out: 10b), in [3] (read-out: 10b), in experiment [4] (read-out: 10b), in [5] (read-out: 10b) and in experiment [6] (read-out: 10b) was more than 50 µM in each case. In addition, the GI50 in experiment [7] (read-out: 10b), in experiment [8] (read-out: 10b), in [9] (read-out: 10b), in experiment [10] (read-out: 10b), in experiment [11] (read-out: 10b) and in experiment [12] (read-out: 10b) was more than 50 µM in each case.
In the case of `CCNC(=O)Nc1ccc(OC/C=C\COc2ccc(NC(=O)NCC)cc2)cc1` [10e, (Z)-1,1′-((But-2-ene-1,4-diylbis(oxy))bis(4,1-phenylene))bis(3-ethylurea)], the GI50 in [1] (read-out: 10e), in experiment [2] (read-out: 10e), in experiment [3] (read-out: 10e), in experiment [4] (read-out: 10e), in experiment [5] (read-out: 10e) and in [6] (read-out: 10e) was more than 50 µM throughout. The GI50 in experiment [7] (read-out: 10e), in [8] (read-out: 10e), in experiment [9] (read-out: 10e), in experiment [10] (read-out: 10e), in experiment [11] (read-out: 10e) and in experiment [12] (read-out: 10e) was more than 50 µM each time.
As to `CCNC(=O)Nc1ccc(OC/C=C\COc2ccc(CCN)cc2)cc1` [13i, (Z)-2-(4-((4-(4-(3-Ethylureido)phenoxy)but-2-en-1-yl)oxy)phenyl)ethan-1-aminium], the GI50 in experiment [1] (read-out: 13i) was 19 ± 0.5 µM; in experiment [2] (read-out: 13i), 13 ± 0.41 µM; in experiment [3] (read-out: 13i), 18 ± 0.91 µM; in experiment [4] (read-out: 13i), 28 ± 4.4 µM; in [5] (read-out: 13i), 29 ± 1.4 µM; in [6] (read-out: 13i) it was 17 ± 0.75 µM. Further, the GI50 in [7] (read-out: 13i) was 18 ± 3.2 µM; in [8] (read-out: 13i), 21 ± 2.1 µM; in experiment [9] (read-out: 13i), 17 ± 0.82 µM; in [10] (read-out: 13i), 15 µM; in [11] (read-out: 13i), 24 ± 2.6 µM; in [12] (read-out: 13i), 28 ± 0.82 µM.
Consider `CCNC(=O)Nc1ccc(OCCCCOc2ccc(NC(=O)NCC)cc2)cc1` [compound 1], for which the GI50 in [1] (read-out: 1), in [2] (read-out: 1), in experiment [3] (read-out: 1), in experiment [4] (read-out: 1), in experiment [5] (read-out: 1) and in experiment [6] (read-out: 1) was more than 50 µM each time. Besides, the GI50 in experiment [7] (read-out: 1), in experiment [8] (read-out: 1), in experiment [9] (read-out: 1), in experiment [10] (read-out: 1), in experiment [11] (read-out: 1) and in experiment [12] (read-out: 1) was more than 50 µM in each case.
`O=C(O)c1ccc(OC/C=C\COc2ccc(C(=O)O)cc2)cc1` [compound 18, (Z)-4,4′-(But-2-ene-1,4-diylbis(oxy))dibenzoic Acid]: the GI50 in experiment [1] (read-out: 18), in [2] (read-out: 18), in [3] (read-out: 18), in experiment [4] (read-out: 18), in experiment [5] (read-out: 18) and in experiment [6] (read-out: 18) was more than 50 µM throughout. Besides, the GI50 in experiment [7] (read-out: 18), in [8] (read-out: 18), in experiment [9] (read-out: 18), in experiment [10] (read-out: 18), in experiment [11] (read-out: 18) and in experiment [12] (read-out: 18) was more than 50 µM each time.
In the case of `N=C(N)NN=Cc1ccc(OC/C=C\COc2ccc(C=NNC(=N)N)cc2)cc1` [compound 22], the GI50 in experiment [1] (read-out: 22) stood at 2.8 ± 0.15 µM; in [2] (read-out: 22), 1.7 ± 0.12 µM; in [3] (read-out: 22) it was 2.4 ± 0.14 µM; in experiment [4] (read-out: 22), 2.9 µM; in [5] (read-out: 22), 2 ± 0.1 µM; in experiment [6] (read-out: 22), 2.2 ± 0.11 µM. The GI50 was 2.3 ± 0.13 µM in experiment [7] (read-out: 22); 2.2 ± 0.065 µM in experiment [8] (read-out: 22); 2.3 ± 0.1 µM in experiment [9] (read-out: 22); 2.1 ± 0.05 µM in experiment [10] (read-out: 22); 1.8 ± 0.048 µM in experiment [11] (read-out: 22); 2.4 ± 0.14 µM in [12] (read-out: 22).

These data come from publication PMC6044933 (ACS Omega, 2017).
